Holding throughout (assay type): cell-based, human
One experiment deals with THP1-derived macrophages. The experiment is described as follows: pHrodo in vitro phagocytosis assay, THP1-derived macrophages. As to conditions: 25k EVs/cell, STINGa 0.14 μg/ml, 48 h, FIG. 18-19. From the text: To test the ability of the RCEVs and CLRCEVs to be taken up by immune cells, we developed an in vitro phagocytosis protocol based upon the THP1 monocyte cell line. Briefly, we determined THP1 cells could be effectively differentiated to become more macrophage-like by treating them with PMA for 3 days followed by 4 days of resting in culture media without PMA. Thereafter, we applied various test substances (e.g. EVs-STINGa, EVs-proRBC, free STINGa, each+/=a reporter dye) to either the undifferentiated or differentiated THP1 cells and observed the phagocytosis activity.
As shown schematically in FIG. 12, pHrodo®-labeled cells or vesicles (e.g. EVs) are added to phagocytic cells, but while they are outside of the cells, there is little to no fluorescence at the approximately pH 7.4 extracellular environment. When the relevant cellular receptors are engaged, a phagocytic cup forms around the labeled cells or vesicles. Finally, an acidic phagosome forms, causing the pHrodo® to emit fluorescence.
As an initial study, the THP1 cells were seeded as follows: 24,000, 34,000, and 44,000 cells/well. […] Labeled EVs-STINGa were added to differentiated THP1 cells and incubated for 12 h and the […] device was set to read the wells every 30 minutes. […] In these greyscale micrograms, the original red fluorescence appears black inside the cells. […]

For a further experiment, the system named is STING. The experiment is described as follows: THP1-Dual IRF-Lucia luciferase reporter assay (QUANTI-Luc). As to conditions: 0.5, 1.0, 1.5, 2.0 μg/mL STINGa; 100k cells/well; 24 h. The protocol: First, indirect measurements were made using the THP1-Dual™ cells (InvivoGen), which are derived from the human THP-1 monocyte cell line and contain a stably integrated inducible IRF-Lucia luciferase reporter construct that expresses luciferase when STING is activated (e.g. by STING agonists including CDN).
Briefly, 100k cells/well were seeded and then treated with different concentrations of free STING agonist (“STINGa”) (0.5, 1.0, 1.5, and 2.0 μg/mL), EVs-STINGa (also referred to as “ERY-STINGa-CLRCEV” or “STINGa-CLRCEV” throughout) (0.5, 1.0, 1.5, and 2.0 μg/mL, carried by the indicated amounts of EVs), and EVs-proRBC. After 24 h, the supernatants were recovered and subjected to QUANTI-Luc™ detection according to the manufacturer's instructions. […] If so, it is envisioned that the in vivo efficacy of EV-STINGa (or any EV-[immune modulator] for that matter) will depend upon the capacity of target cells for taking up the CLRCEVs. It is further envisioned that if the THP1-Dual monocytes had been differentiated into macrophages, the highest dose of EVs-STINGa would have elicited at least as much luciferase activity as the highest dose of free STINGa.
(A reporter such as luciferase makes a cellular process visible.)

For a further experiment, the system named is THP1 macrophages. The experiment is described as follows: Cytokine release by THP1 macrophages (BioLegend bead kit, flow cytometry). The protocol:
In a second approach, the levels of IL-1b, IL-6, TNF-α, and IFN-β were measured after THP1 macrophages were incubated with varying concentrations of STINGa, STINGa-CLRCEVs, or proRBC EVs.
[…] Supernatants were collected at 6 h and 24 h after stimulation and frozen until quantification. Supernatants were analyzed by flow cytometry using the BioLegend kit with four (4) different beads recognizing IL-1b, IL-6, TNF-α, IFN-β.
It has been reported that vesicles from packed red blood cell (pRBC) units bind to monocytes and induce proinflammatory cytokines, boosting T-cell responses in vitro (Danesh et al 2013). To test whether CLRCEVs and/or RCEVs would likewise induce these cytokines, THP1 macrophages were grown and treated as before and the levels of IL-6, IL-1b, and TNF-α were measured.

On to `Nc1ncnc2c1ncn2[C@@H]1O[C@@H]2COP(=O)([S-])O[C@@H]3[C@H](O)[C@@H](COP([O-])(=S)O[C@H]2[C@H]1O)O[C@H]3n1cnc2c(N)ncnc21.[Na+].[Na+]` (stereo partly drawn) [free STINGa, ADU-S100], for which the “red fluorescence (uptake)” value in the experiment on THP1-derived macrophages is listed as “neither free STINGa+pHrodo nor pHrodo alone produced appreciable fluorescence”. In addition, the “luciferase activity (IRF pathway activation)” value in the experiment with STING is on record as “a clear dose response effect was observed”. The IFN-β with THP1 macrophages (3 μg/ml STINGa (EVs 7.6E10 EVs/mL), time not stated) worked out at 140 pg/mL; in the experiment with THP1 macrophages (8 μg/mL STINGa (EVs 2.0E11 EVs/mL), 6 h), 400 pg/mL; in the experiment on THP1 macrophages (8 μg/mL STINGa (EVs 2.0E11 EVs/mL), 24 h), 318 pg/mL. For the same compound, the IL-6 is 25 pg/mL in the experiment with THP1 macrophages (2.5E+10 EVs/mL, STINGa 1 μg/ml); 38 pg/mL in the experiment with THP1 macrophages (5.0E10 EVs/mL, STINGa 2 μg/ml); 453 pg/mL in the experiment with THP1 macrophages (24 h, 2.0E11 EVs/mL, STINGa 8 μg/ml). The “IL-1b release” value with THP1 macrophages (8, 2 or 1 μg/mL, 6 h and 24 h) was “did not induce the release of IL-1b”.

The record behind these values is patent US20230226218A1, “Red Cell Extracellular Vesicles (RCEVs) Containing Cargoes and Methods of Use and Production Thereof” (ERYTECH PHARMA, priority 2020, published 2023).
